Series [1] relates to PC 12 cells. Briefly: MTT assay after acrolein exposure (MSN study). As to conditions: Rattus norvegicus, read-out: MTT activity (absorbance), % of control values. The class given is cell-based. As to the method:
(§1) Exposure to 100 μM acrolein can induce the death of >80% of a population of PC 12 Cells by a few hours, and 100% by 8-12 hours of observation. […] Typically, populations of cells with acrolein-mediated damage show a significant reduction in MTT activity due to the collapse of mitochondria function.
In general terms: Tetrazolium assays rely on reduction of a dye to a coloured formazan, in cell work by metabolically active cells.

The subject of series [2] is PC 12 cells. Briefly: LDH release assay after acrolein exposure (MSN study). The format is cell-based. As to conditions: Rattus norvegicus, PC-12, 0.25 h; 100 μM acrolein; treatment added with 15 min delay; acrolein row = acrolein alone; read-out: LDH release, % of control values. How it is done: as §1
The test system of series [3] is PC 12 cells. Briefly: MTT assay after acrolein exposure (chitosan nanoparticles). The format is cell-based. As to the method: (§2) In one example, functional tests (MTT and LDH exclusion tests) were used to evaluate the response to different chitosan formulations in PC 12 cells suffering from acrolein exposure. We compared the effectiveness of these formulations using entire cell populations in six different groups: 1) a control group, (2) a 100 μM acrolein-exposed group, (3) a 100 μM acrolein-exposed and Chi-DS nanoparticle—treated group, (4) a 100 μM acrolein-exposed and Chi-DS/Hy nanoparticle—treated group, (5) a 100 μM acrolein-exposed and Chi-TPP nanoparticle—treated group, and (6) a 100 μM acrolein-exposed and Chi-TPP/Hy nanoparticle—treated group. First, we tested whether chitosan nanoparticles were capable of sufficiently reducing acrolein cytotoxicity using the MTT assay. In all experiments, the various types of nanoparticles were added to the cell medium after 15 min following the exposure to acrolein. As a consequence of acrolein exposure, approximately 98% of the cells in culture died within a couple of hours. Acrolein-induced cytotoxicity was expressed as a percentage of MTT activity, which is, as explained above, an indicator of aberrant mitochondria functioning. Thus, MTT activity subsequent to 100 acrolein exposure was decreased to 3.5±2.9% of controls values. […] Even more significant increase was observed after application of hydralazine-entrapped chitosan nanoparticles. […]

The subject of series [4] is PC 12 cells. Briefly: LDH release after acrolein exposure (chitosan nanoparticles). The class given is cell-based. As to conditions: Rattus norvegicus, 100 μM acrolein, post-treatment with nanoparticles, acrolein row = acrolein alone, read-out: LDH release, % of control values. As to the method:
as §2
In general terms: LDH in the medium is a marker of cell lysis.

Series [5] relates to PC 12 cells. The experiment in a line: Live-dead cell assay after acrolein exposure. The format is cell-based. As to conditions: 5 hr, control cells 90±7%.
Series [6] deals with acrolein poisoned cultures. Briefly: ROS level in acrolein poisoned cultures. The format is cell-based. As to conditions: 100 μM acrolein; acrolein row = acrolein alone; read-out: level of ROS, % of control values.
Series [7] relates to PC 12 cells. As to conditions: 100 μM acrolein, cited from earlier work.
The subject of series [8] is voltage gated fast potassium channels. As to conditions: paralyzed persons; cited from earlier work.

Results on three compounds are retold here after patent US20110052713A1, “REPAIRING DAMAGED NERVOUS SYSTEM TISSUE WITH NANOPARTICLES” (priority 2008, published 2011).

Like-named read-outs stand apart in the source and are kept apart here.

As for `C=CC=O` [acrolein], the activity at 100 µM in the series with PC 12 cells [1] worked out at 11 ± 10.2%; with PC 12 cells [2], 168 ± 15.4%; in the series on PC 12 cells [3] (Rattus norvegicus, PC-12, 100 μM acrolein, nanoparticles added 15 min after, after 5 hr, acrolein row = acrolein alone, read-out: MTT activity / survival, % of control values), 3.5 ± 2.9%; in the series on PC 12 cells [4] it was 178 ± 25.4%; in series [6], 120 ± 14%. Moreover, the “cells in culture that died” value with PC 12 cells [3] (acrolein exposure, within a couple of hours) is given as “approximately 98%”. Moreover, in the series with PC 12 cells [5], the “cell survival (live-dead cell assay)” value was 30±8%. The “death of cell population” value with PC 12 cells [7] (by 8-12 hours of observation) is on record as 100%; in the series with PC 12 cells [7] (by a few hours), above 80%.
As for `NNc1nncc2ccccc12` [hydralazine], the activity at 500 µM with PC 12 cells [1] is 53.8 ± 18.6%.
As for `Nc1ccncc1` [4-Aminopyridine], the “share of treated population with clinically meaningful recoveries of function” value in series [8] is “about 30%”.
